The source of these data is ChEMBL document CHEMBL1154221, “Farinomalein, a maleimide-bearing compound from the entomopathogenic fungus Paecilomyces farinosus” (2009).

This experiment deals with Phytophthora sojae. Description: Antioomycete activity against Phytophthora sojae P6497 after 48 to 96 hrs by disc diffusion method. Type of experiment: functional.

Consider `CC(C)C1=CC(=O)N(CCC(=O)O)C1=O` [FARINOMALEIN], for which the MIC stood at 5 µg. Regarding `C[C@@H]1[C@H](O)[C@@H](C)/C=C/C=C/C=C/C=C/C=C/C=C/C=C/[C@H](O[C@@H]2O[C@H](C)[C@@H](O)[C@H](N)[C@@H]2O)C[C@@H]2O[C@](O)(C[C@@H](O)C[C@@H](O)[C@H](O)CC[C@@H](O)C[C@@H](O)CC(=O)O[C@H]1C)C[C@H](O)[C@H]2C(=O)O` [AMPHOTERICIN B], the MIC worked out at 10 µg.
